According to ChEMBL document CHEMBL6177984, “Pyrazolo[1,5-a]pyrimidine-Based Type-I Photosensitizer as an Efficient Pyroptosis Inducer for Tumor Ablation” (J Med Chem, 2025):
Active and inactive are the calls of the source. No cut-off for these calls is given here.

What was measured:
[1] = Induction of ROS generation in BPS buffer assessed as increase in superoxide anion radical level at 10 uM irradiated with 525 nm 20 mW/cm2 light by DHR123 probe based fluorescence spectra analysis; format: functional
[2] = Dark cytotoxicity against human MDA-MB-231 cells assessed as cell viability incubated for 24 hrs by CCK8 assay; format: toxicity, cell-based
MDA-MB-231 [3] = assay: Dark cytotoxicity against human MDA-MB-231 cells assessed as cell viability at 1 uM incubated for 24 hrs by CCK8 assay; format: toxicity, cell-based; details: mda-mb-231, 24 h
MDA-MB-231 [4] = assay: (§1) Photocytotoxicity in human MDA-MB-231 cells assessed as cell viability preincubated with compound for 1 hr followed by light irradiated with 400 to 700 nm 100 mW/cm^2 for 10 mins and measured after 24 hrs by CCK-8 assay; format: functional, cell-based; details: MDA-MB-231, light or radiation study
MDA-MB-231 [5] = assay: Photocytotoxicity in human MDA-MB-231 cells assessed as cell viability preincubated with compound for 1 hr followed by light irradiated with 400 to 700 nm 100 mW/cm^2 for 10 mins and measured after 24 hrs under hypoxic condition by CCK-8 assay; format: functional, cell-based; details: MDA-MB-231, light or radiation study
MDA-MB-231 [6] = assay: Photocytotoxicity in human MDA-MB-231 cells assessed as reduction in ATP level at 0.5 uM preincubated with compound for 6 hrs followed by light irradiated with 400 to 700 nm 100 mW/cm^2 for 10 mins; format: functional, cell-based; details: time 370.0 min
MDA-MB-231 [7] = assay: Induction of apoptosis in human MDA-MB-231 cells assessed as cell death by flow cytometry analysis; format: functional, cell-based
MDA-MB-231 [8] = assay: Induction of pyroptosis in human MDA-MB-231 cells assessed as swelling bubble formation at 0.5 uM preincubated with compound for 3 hrs followed by light irradiated with 400 to 700 nm 100 mW/cm^2 for 10 mins by confocal microscopic analysis; format: functional, cell-based; details: time 190.0 min
MDA-MB-231 [9] = assay: Induction of pyroptosis mediated immunogenic cell death in human MDA-MB-231 cells assessed as increase in ATP release at 0.5 uM preincubated with compound for 1 hr followed by light irradiated with 400 to 700 nm 100 mW/cm^2 for 10 mins and measured after 6 to 12 hrs by microplate luminometer analysis; format: functional, cell-based; details: time 430-790 min
[10] = Toxicity in BALB/c mouse implanted with mouse 4T1 cells assessed as kidney damage at 1 mg/kg, iv using self assembled nanoparticle as source of compound measured up to 16 days by H and E staining based analysis; format: organism-based; details: in vivo, 384 h, time < 16 day
[11] = Induction of ROS generation in BPS buffer assessed as increase in singlet oxygen level by measuring reduction in ABDA absorption peak at 10 uM irradiated with 400 to 700 nm 20 mW/cm2 light […]; format: functional
MDA-MB-231 [12] = assay: Induction of ROS production in human MDA-MB-231 cells assessed as increase in green fluorescence intensity at 0.3 uM preincubated with compound for 1 hr followed by light irradiation with 400 to 700 nm 100 mW/cm2 for 10 mins by HPF fluorescent probe based flow cytometry; format: functional, cell-based; details: time 70.0 min
MDA-MB-231 [13] = assay: Upregulation of cleaved caspase expression in human MDA-MB-231 cells at 0.5 to 1 uM preincubated with compound for 1 hr followed by light irradiated with 400 to 700 nm 100 mW/cm^2 for 10 mins and measured after 3 hrs by Western blot analysis; format: functional, cell-based; details: dose 0.5-1 µM, time 250.0 min
[14] = Toxicity in BALB/c mouse implanted with mouse 4T1 cells assessed as heart damage at 1 mg/kg, iv using self assembled nanoparticle as source of compound measured up to 16 days by H and E staining based analysis; format: organism-based; details: in vivo, 384 h, time < 16 day
MDA-MB-231 [15] = assay: Induction of ROS production in human MDA-MB-231 cells assessed as increase in intracellular OH level at 0.3 uM preincubated with compound for 1 hr followed by light irradiation with 400 to 700 nm 100 mW/cm2 for 10 mins by HPF fluorescent probe based flow cytometry; format: functional, cell-based; details: time 70.0 min
MDA-MB-231 [16] = assay: as §1, with “death by measuring red fluorescence intensity at 0.5 uM” for “viability”, “PI staining based confocal microscopic analysis” for “CCK-8 assay”; format: functional; details: time 1510.0 min
MDA-MB-231 [17] = assay: Induction of pyroptosis in human MDA-MB-231 cells assessed as formation of bubble-like protrusion on plasma membrane at 0.5 uM preincubated with compound for 1 hr followed by light irradiated with 400 to 700 nm 100 mW/cm^2 for 10 mins and measured after 6 hrs by DiO staining based confocal microscopic analysis; format: functional, cell-based; details: time 430.0 min
MDA-MB-231 [18] = assay: Induction of pyroptosis mediated immunogenic cell death in human MDA-MB-231 cells assessed as HMGB1 release from nucleus at 0.5 uM preincubated with compound for 1 hr followed by light irradiated with 400 to 700 nm 100 mW/cm^2 for 10 mins and measured after 18 hrs; format: functional, cell-based; details: time 1150.0 min
MDA-MB-231 [19] = assay: Effect on GSDME expression in human MDA-MB-231 cells at 0.5 to 1 uM incubated for 3 hrs by Western blot analysis; format: functional, cell-based; details: dose 0.5-1 µM
MDA-MB-231 [20] = assay: Induction of pyroptosis in human MDA-MB-231 cells assessed as change in LDH level at 0.5 uM preincubated with compound for 1 hr followed by light irradiated with 400 to 700 nm 100 mW/cm^2 for 10 mins and measured after 12 to 24 hrs; format: functional, cell-based; details: time 790-1510 min
4T1 [21] = assay: Photocytotoxicity in mouse 4T1 cells assessed as cell viability up to 10 uM preincubated with compound for 1 hr followed by light irradiated with 400 to 700 nm 100 mW/cm^2 for 10 mins and measured after 24 hrs by CCK-8 assay; format: functional, cell-based; details: time 1510.0 min
[22] = Toxicity in BALB/c mouse implanted with mouse 4T1 cells assessed as liver damage at 1 mg/kg, iv using self assembled nanoparticle as source of compound measured up to 16 days by H and E staining based analysis; format: organism-based; details: in vivo, 384 h, time < 16 day
MDA-MB-231 [23] = assay: Induction of ROS production in human MDA-MB-231 cells assessed as increase in […] fluorescence intensity at 0.3 uM preincubated with compound for 1 hr followed by light irradiation with 400 to 700 nm 100 mW/cm2 for 10 mins by DHE fluorescent probe based flow cytometry; format: functional, cell-based; details: time 70.0 min
MDA-MB-231 [24] = assay: Effect on caspase-3 expression in human MDA-MB-231 cells at 0.5 to 1 uM incubated for 3 hrs by Western blot analysis; format: functional, cell-based; details: dose 0.5-1 µM
MDA-MB-231 [25] = assay: Upregulation of N-terminal GSDME expression in human MDA-MB-231 cells at 0.5 to 1 uM preincubated with compound for 1 hr followed by light irradiated with 400 to 700 nm 100 mW/cm^2 for 10 mins and measured after 6 hrs by Western blot analysis; format: functional, cell-based; details: dose 0.5-1 µM, time 430.0 min
4T1 [26] = assay: Antitumor activity against mouse 4T1 cells implanted in BALB/c mouse at 1 mg/kg, iv using self assembled nanoparticle as source of compound measured at 3 hrs; format: functional, organism-based
4T1 [27] = assay: (§2) Antitumor activity against mouse 4T1 cells implanted in BALB/c mouse assessed as increase in caspase-3 level at 1 mg/kg, iv using self assembled nanoparticle as source of compound preincubated with compound for 3 hrs followed by irradiation with 400 to 700 nm 100 mW/cm2 for 5 mins and measured after 14 days; format: functional, organism-based; details: time 20345.0 min
MDA-MB-231 [28] = assay: Induction of ROS production in human MDA-MB-231 cells assessed as increase in red fluorescence intensity at 0.3 uM preincubated with compound for 1 hr followed by light irradiation with 400 to 700 nm 100 mW/cm2 for 10 mins by […] fluorescent probe based flow cytometry; format: functional, cell-based; details: time 70.0 min
MDA-MB-231 [29] = assay: as §1, with “viability by measuring green fluorescence intensity at 0.5 uM” for “viability”, “Calcein-AM staining based confocal microscopic analysis” for “CCK-8 assay”; format: functional; details: time 1510.0 min
4T1 [30] = assay: as §2, with “increase CD4+ CD8+ cells” for “increase”, “lymph” for “caspase-3 level”, “days by flow cytometry analysis” for “days”; format: functional, organism-based; details: time 20345.0 min
[31] = Drug uptake in human MDA-MB-231 cells at 2 uM measured at 1 hr by flow cytometry analysis; format: ADME, cell-based; details: mda-mb-231, 1 h
MDA-MB-231 [32] = assay: Induction of pyroptosis in human MDA-MB-231 cells assessed as increase in IL-1beta content at 0.5 uM preincubated with compound for 1 hr followed by light irradiated with 400 to 700 nm 100 mW/cm^2 for 10 mins and measured after 12 to 20 hrs; format: functional, cell-based; details: time 790-1270 min
[33] = Toxicity in BALB/c mouse implanted with mouse 4T1 cells assessed as lung damage at 1 mg/kg, iv using self assembled nanoparticle as source of compound measured up to 16 days by H and E staining based analysis; format: organism-based; details: in vivo, 384 h, time < 16 day
[34] = Toxicity in BALB/c mouse implanted with mouse 4T1 cells assessed as change in body weight at 1 mg/kg, iv using self assembled nanoparticle as source of compound measured up to 16 days; format: organism-based; details: in vivo, 384 h, time < 16 day
MDA-MB-231 [35] = assay: Induction of pyroptosis mediated immunogenic cell death in human MDA-MB-231 cells assessed as increase in CRT exposure on cell membrane at 0.5 uM preincubated with compound for 1 hr followed by light irradiated with 400 to 700 nm 100 mW/cm^2 for 10 mins and measured after 18 hrs; format: functional, cell-based; details: time 1150.0 min
MDA-MB-231 [36] = assay: Photocytotoxicity in human MDA-MB-231 cells assessed as cell viability at 1 uM preincubated with compound for 1 hr followed by light irradiated with 400 to 700 nm 100 mW/cm^2 for 10 mins and measured after 24 hrs by CCK-8 assay; format: functional, cell-based; details: time 1510.0 min
[37] = Induction of ROS generation in BPS buffer assessed as increase in superoxide anion radical level by measuring increase in DHR123 fluorescence intensity at 10 uM irradiated with 400 to 700 nm 20 mW/cm2 light by DHR123 probe based fluorescence spectra analysis; format: functional; details: time <= 10.0 min
4T1 [38] = assay: as §2, with “increase CD4+ CD8+ cells” for “increase”, “spleen” for “caspase-3 level”, “days by flow cytometry analysis” for “days”; format: functional, organism-based; details: time 20345.0 min
4T1 [39] = assay: Induction of pyroptosis in mouse 4T1 cells preincubated with compound for 1 hr followed by light irradiated with 400 to 700 nm 100 mW/cm^2 for 10 mins; format: functional, cell-based; details: time 70.0 min
MDA-MB-231 [40] = assay: Induction of pyroptosis in human MDA-MB-231 cells assessed as increase in IL-18 content at 0.5 uM preincubated with compound for 1 hr followed by light irradiated with 400 to 700 nm 100 mW/cm^2 for 10 mins and measured after 12 to 20 hrs; format: functional, cell-based; details: time 790-1270 min
MDA-MB-231 [41] = assay: Induction of ROS production in human MDA-MB-231 cells assessed as increase in red fluorescence intensity at 0.3 uM preincubated with compound for 1 hr followed by light irradiation with 400 to 700 nm 100 mW/cm2 for 10 mins by DHE fluorescent probe based flow cytometry; format: functional, cell-based; details: time 70.0 min
[42] = Toxicity in BALB/c mouse implanted with mouse 4T1 cells assessed as spleen damage at 1 mg/kg, iv using self assembled nanoparticle as source of compound measured up to 16 days by H and E staining based analysis; format: organism-based; details: in vivo, 384 h, time < 16 day

COC(=O)c1ccccc1C1c2ccc(N)cc2Oc2cc(N)ccc21
Activity [1]: Active

CC[n+]1ccc(/C=C/c2ccc(-c3cnn4ccc(N5CCOCC5)nc34)s2)cc1.[Br-]
IC50 at 24 h [2]: > 10 µM
Activity (MDA-MB-231 [3]): Non-toxic
IC50 (MDA-MB-231 [4]): > 10 µM

CC[n+]1c(/C=C/c2ccc(-c3cnn4ccc(N5CCOCC5)nc34)o2)sc2ccccc21
IC50 at 24 h [2]: > 10 µM
IC50 (MDA-MB-231 [4]): 1.01 µM

CC[n+]1c(/C=C/c2ccc(-c3cnn4ccc(N5CCOCC5)nc34)s2)sc2ccccc21.[I-]
IC50 (MDA-MB-231 [5]): 1.1 µM
Activity (MDA-MB-231 [6]): Active
IC50 at 24 h [2]: > 20 µM
Activity (MDA-MB-231 [7]): Active
Activity (MDA-MB-231 [8]): Active
Activity (MDA-MB-231 [9]): Active
Activity [10]: Non-toxic
Activity [11]: Active
Activity (MDA-MB-231 [12]): Active
Activity (MDA-MB-231 [13]): Active
Activity [14]: Non-toxic
Activity (MDA-MB-231 [15]): Active
Activity (MDA-MB-231 [16]): Active
Activity (MDA-MB-231 [17]): Active
Activity (MDA-MB-231 [18]): Active
Activity (MDA-MB-231 [19]): inactive
Activity (MDA-MB-231 [20]): Active
Activity (4T1 [21]): Active
Activity [22]: Non-toxic
Activity (MDA-MB-231 [23]): Active
Activity (MDA-MB-231 [24]): inactive
Activity (MDA-MB-231 [25]): Active
Activity (4T1 [26]): Active
Activity (4T1 [27]): Active
Activity (MDA-MB-231 [28]): Active
Activity (MDA-MB-231 [29]): Active
Activity (4T1 [30]): Active
Drug uptake [31]: Active
Activity (MDA-MB-231 [32]): Active
Activity [33]: Non-toxic
Activity (MDA-MB-231 [3]): Non-toxic
Activity [34]: Non-toxic
Activity (MDA-MB-231 [35]): Active
Activity (MDA-MB-231 [36]): Active
IC50 (MDA-MB-231 [4]): 0.22 µM
Activity [37]: Time-dependent-effect
Activity (4T1 [38]): Active
Activity (4T1 [39]): Active
Activity (MDA-MB-231 [40]): Active
Activity (MDA-MB-231 [41]): Active
Activity [42]: Non-toxic
